{"source": "patent US20110188043A1", "about": "“METHOD AND APPARATUS FOR MONITORING PROCESSES IN LIVING CELLS” (Yissum, Research Development Company of The Hebrew …, priority 2007, published 2011)", "key": {"[1]": {"tested_on": "Human melanoma (MEL 1106) cells", "assay": "FTIR-SPR measurements of Tfn-induced SPR signal shifts in a cell monolayer on an Au-coated ZnS prism", "format": "cell-based", "settings": "for SPR signal shift on cell exposure to ligand: 5 μg/ml of Tfn, cells on Au-coated ZnS prism; for change in the average refraction index of cells Δn: calculated as Δn=ΔR/S at 4425 cm^−1", "description": "Surface plasmon (SP) was excited using Kretchmann's geometry as illustrated in FIG. 3A employing the Bruker FTIR spectrometer (Equinox 55—Bruker Optik GmbH, Ettlingen, Germany) equipped with a KBr beam splitter as mid-IR source, and a right-angle ZnS prism having a 20×40 mm base (ISP Optics, Inc., Irvington, N.Y, US) coated with an 18-nm-thick gold film (electron-beam evaporation). Cells were cultured on the gold surface, as described below. The prism and cells were attached to a flow chamber mounted on a goniometer, in such way that the cells on the gold-coated base faced the flow chamber's volume (0.5 ml). The flow chamber was filled with cell culture medium, resulting in direct contact between the medium and the gold layer, or cells cultured on that layer. The medium was passed through the chamber at a constant flow rate (5 μl/min) during the entire experiment, using a motorized bee syringe pump equipped with a variable speed controller. The temperature of the medium flowing through the chamber was controlled (±0.1° C.). The infrared light from the output window of the FTIR instrument passed through a collimator, consisting of a 1-mm diameter pinhole mounted between two gold coated off-axis parabolic mirrors, m1 and m2, with focal lengths of about 76.2 mm and 25.4 mm, respectively, along with a grid polarizer and an iris. The collimated beam (˜4 mm in diameter) was reflected from the ZnS prism and focused by an additional parabolic mirror, m3, onto a liquid-nitrogen-cooled MCT (HgCdTe) detector, mounted on the goniometer.\nHuman melanoma (MEL 1106) cells were cultured on a 10-cm dish in Dolbecco's modified Eagle's medium (D-MEM, Biological Industries, Israel), supplemented with 4.5 g/l D-glucose, 10% antibiotics, and 10% fetal calf serum, as previously described for HeLa cells [Ziblat et al., 2006]. These cells were used in the SPR experiments, and their culture on Au coated prisms was performed as follows: upon reaching 70% confluence, cells were detached from the dish by trypsin C (0.05% Trypsin/EDTA in Puck's saline A; Biological Industries, Israel) treatment, and brought to a cell density of about 1.8×10^5 cells/ml in complete growth medium. With reference to FIG. 7, three milliliters of cell suspension 29 were seeded on top of the Au-coated ZnS prism 27 mounted onto a home-made polycarbonate holder, such that the cell suspension 29 covered the entire prism's base 28. Cells were allowed to attach for at least 3 hrs in a CO2 incubator (5% CO2, 37° C., 90% humidity). Thereafter, growth medium (5 ml) was added and the prism 27 was placed in a CO2 incubator for an additional 2-3 days, until a uniform and nearly confluent monolayer of cells (above 70%; ˜30 cells per 1000 μm^2) covered the Au-surface.\nIn the initial phase of each experiment, cells cultured on an Au-coated prism were exposed to serum-free DMEM for 3 hours at […] for depleting the cells from internal pools of Tfn contributed by the serum. The prism with the cultured cells was then attached to the flow chamber, which was rapidly filled with pre-warmed (37° C.) minimal essential medium (MEM) containing Hank's salts (GIBCO), 20 mM Hepes, pH 7.2, and 5 μg/ml BSA (MEM-BSA). The temperature in the flow chamber was adjusted to 37° C.±0.1° C., unless otherwise indicated. Thereafter, the angle of incidence in the SPR configuration was set to θ=35.5°. […] These parameters were optimal, allowing maximal sensitivity (S=ΔR/Δn), and reasonable SP penetration depth/propagation length.\nThe reflectivity of the s-polarized beam was used as a background for subsequent measurements. The SPR signal is the ratio of the reflectivities obtained for the p-polarized and s-polarized beams. The FTIR-SPR set-up of the invention repeatedly measured the reflectivity spectra. This was done every 25 seconds with a 4-cm^−1 wavenumber resolution and with 16-scan averaging. The SPR measurements were carried out continuously for 15-20 minutes, until a stable SPR signal was recorded. […]"}, "Melanoma cells": {"tested_on": "Melanoma cells", "assay": "Time-lapse confocal imaging of fluorescently tagged-Tfn uptake", "format": "cell-based, human", "description": "Melanoma cells were cultured to ˜50% confluence on glass bottom culture dishes (35 mm dish, 14 mm Microwell; MatTek, Co., MA, USA). Cells were first exposed to growth medium lacking serum for 3 hrs prior to the experiment, and then washed three times with internalization buffer (150 mM NaCl, 20 mM Hepes, pH 7.4, 1 mM CaCl2, 5 mM KCl, 1 mM MgCl2, 10 mM Glucose). Following the last wash, internalization buffer containing 0.1 μM sulforhodamine green (SRG) (Biotium, Hayward, Calif.) was added to the medium. Cells were imaged (FIG. 10A—confocal imaging of live cells performed simultaneously in the green and red channels, about 30 sec (designated time 0) after cell exposure to the ligand) with an Olympus FV-1000 confocal microscope equipped with an on-scope incubator (Life Image Services, Bazel, Switzerland), which controls temperature and humidity, and provides an atmosphere of 5% CO2. A 60×/NA=1.35 oil immersion objective was used. […] First, one plane of focus was acquired, and Rhodamine Red'-holo Tfn (5 μg/ml; Jackson ImmunoResearch) was introduced into the imaging buffer. Confocal images of both the SRG (Ex: 514 nm; Em: 535-565 nm) and Rhodamine Red-holo-Tfn (Ex: 543 nm; Em: 560-660 nm) were acquired from the same section every 10 or 20 sec. A similar protocol was used for Lissamine Rhodamine-apo-Tfn, except that the SRG was imaged using 488-nm excitation and a 505-525-nm emission filter. The FV1000 was equipped with the ZDC (Zero Drift Controller) option, to maintain the same focus plane throughout the entire period of imaging.\nThe images were processed using ImageJ [Rasband, W. S., ImageJ, U.S. National Institutes of Health, Bethesda, Md., USA, http://rsb.info.nih.gov/ij/, 1997-2007] to determine fluorescence levels within cells as follows: First the despeckle filter (essentially a median filter with a 3×3 kernel) was applied to remove point noise and the SRG image was used to determine the cell boundaries; then, the average fluorescence intensity inside the cells (F(t)intracellular) was divided by the average fluorescence intensity in a region of interest outside the cells (<F(t)>extracellular). This procedure was adopted based on the assumption that there is insignificant depletion of labeled Tfn in the medium, so that the fluorescence in the medium should remain constant.\nThen, the fluorescence levels within the bounded area were determined in the red channels for each time frame. Background fluorescence levels measured before the addition of Rhodamine Red-Tfn were subtracted from values measured in the same channel during ligand introduction."}, "[2]": {"tested_on": "human red blood cells (RBCs)", "assay": "FTIR-SPR measurement of glucose uptake by erythrocyte suspension", "format": "cell-based", "settings": "λ=4 μm, 22° C., erythrocyte suspension in PBS", "description": "In the following section measurements of glucose uptake by erythrocyte suspension in the PBS medium are described. Briefly, fresh human red blood cells (RBCs) were washed four times in PBS by centrifugation. The supernatant and buffy coat cells were discarded and RBCs were resuspended in glucose-free PBS to yield ce=5% v/v. For complete glucose depletion, cells were incubated for 60 min at 22° C. in PBS. Then, RBCs were centrifuged and resuspended in fresh PBS containing the required concentrations of D-glucose supplemented with L-glucose, to keep the total glucose concentration (osmolarity) equal to 20 mM. The SPR measurements were performed at 22° C. to slow down cellular glycolysis. The measurements were performed using a ZnS prism coated with a 12-nm thick Au film. […] Although the sensitivity at this wavelength is low (FIG. 19A), the use of such a long wavelength here is mandatory in order to sense the processes inside erythrocytes. The average distance between the erythrocytes is Dece^1/3=17 μm. The surface plasmon propagation length, Lx=30 μm (FIG. 21), exceeds the distance between erythrocytes."}, "Melanoma 1106 cell": {"tested_on": "Melanoma 1106 cell", "assay": "FTIR-SPR of ferrotransferrin uptake with long-wavelength surface plasmon", "format": "cell-based, human", "settings": "λ=2.54 μm", "excerpt": "The FTIR-SPR technique of the invention was applied to study transferrin-induced clathrin-mediated endocytic processes that introduce Fe ions into the cell.\nThe same process was studied using a long-wavelength surface plasmon at λ=2.54 μm. Its penetration depth, δzd=1.2 μm (FIG. 20), is deep enough to penetrate the cells, although it senses mostly the cell periphery. […] The kinetics of the SPR reflectivity closely follows the fluorescence kinetics in the cell periphery (FIG. 27A), as expected. […] The obvious advantage of the SPR technique is that it is label-free. […] This rules out the possibility that the SPR shift results from accumulation of organic molecules in the cell (this would increase the refractive index). […] This is consistent with the biological picture of endocytosis that includes transferrin-induced vesicular transport."}, "HeLa cells": {"tested_on": "HeLa cells", "assay": "FTIR-SPR of cholesterol enrichment/depletion of the cell membrane", "format": "cell-based, human", "settings": "λ=1.08 μm, 37° C.; mβCD-chol at t=0, mβCD at t=15 for 3 min", "excerpt": "The penetration of cholesterol into the plasma membrane of the HeLa cells was studied with the FTIR-SPR technique of the invention (similar studies using SPR in the visible range were reported by Besenicar et al., [Biochimica et Biophysica Acta-Biomembranes, 177, 175 (2008).]. It is well-known that cholesterol enters mostly into the plasma membrane rather than into cytoplasm. Therefore, to achieve high sensitivity to membrane-related events, the near-infrared wavelength range was chosen, λsp=1÷1:08 μm, characterized by a relatively low SPR penetration depth.\nThe HeLa cells were grown on an SF-11 glass prism coated with 35-nm-thick gold film. The prism with the cells was mounted into a flow chamber and was equilibrated in growth medium for 5-7 minutes at 37° C. Then 10 mM of mfβCD-chol (methyl-beta-cyclodextrin loaded with cholesterol) was added, which is known to enrich the cells by cholesterol. The FTIR-SPR spectra was measured before and after adding the drugs. […] This corresponds to a refractive index increase because cholesterol has a higher refractive index than water. In contrast, when a similar chemical, mβCD, which is not loaded with cholesterol, was added (at t=15 for 3 min) to a growth solution the SPR is blue-shifted, which corresponds to a refractive index decrease. […]"}}}
{"compound": "CN(C)CCCN1c2ccccc2Sc2ccc(Cl)cc21", "note": "[CPZ, Chlorpromazine, reference compound]", "values": [{"measurement": "SPR signal shift immediately after cell exposure to the drug", "setting": "[1]; 100 μM CPZ in MEM/BSA, 37° C.", "result": "sizeable shift of the SPR signal towards shorter wavelengths"}, {"measurement": "effect on holo-Tfn-induced SPR signal shifts", "setting": "[1]; 100 μM CPZ, then approximately 90 min washout, compared with untreated cells", "result": "diminished SPR signal shifts"}, {"measurement": "blue shift in the SPR signal relative to that induced by Tfn", "setting": "[1]; CPZ treatment per se", "result": 10, "unit": "times"}, {"measurement": "washout time after which a steady SPR signal was measured", "setting": "[1]; CPZ washout with plain MEM/BSA", "result": "~30", "unit": "min"}, {"measurement": "SPR signal shift on removal (washout) with plain MEM/BSA", "setting": "[1]", "result": "ongoing decrease"}, {"measurement": "effect on rate of holo-Tfn uptake into the cells (fluorescence)", "setting": "Melanoma cells; CPZ treatment followed by 90 min of drug washout, 37° C.", "result": "significantly decreased the rate of holo-Tfn uptake"}]}
{"compound": "O=C[C@H](O)[C@@H](O)[C@H](O)[C@H](O)CO", "note": "[D-glucose]", "values": [{"measurement": "reflectivity in the SPR regime upon addition", "setting": "[2]", "result": "reflectivity in the SPR regime rapidly increases with time, until saturation is reached"}]}
{"compound": "Rhodamine Red-holo-Tfn: Rhodamine Red tagged holo-Tfn (Jackson ImmunoResearch) used for fluorescence imaging [reference compound]", "values": [{"measurement": "ligand internalization rates (fluorescence)", "setting": "Melanoma cells; lower temperatures (30° C. vs 37° C.)", "result": "reduced ligand internalization rates"}]}
{"compound": "apo-Tfn: Human apo-Tfn dialyzed against sodium citrate to remove possible iron traces; tagged with Lissamine Rhodamine for imaging", "values": [{"measurement": "SPR signal shift on cell exposure to ligand", "setting": "[1]; 37° C.", "result": "small SPR signal shifts"}, {"measurement": "change in the average refraction index of cells Δn", "setting": "[1]", "result": "smaller than −1*10^−4"}, {"measurement": "accumulation of tagged Tfn fluorescence within the cells", "setting": "Melanoma cells; 37° C.", "result": "accumulated within the cells at slower rates"}]}
{"compound": "holo-Tfn: Human apo-Tfn (transferrin) loaded with iron, which converts it to holo-Tfn", "values": [{"measurement": "SPR signal shift on cell exposure to ligand", "setting": "[1]; 37° C.", "result": "time-dependent shifts of the SPR minimum towards shorter wavelengths"}, {"measurement": "Tfn-induced SPR shifts", "setting": "[1]; 19° C.", "result": "diminished SPR shifts"}, {"measurement": "Tfn-induced SPR shifts", "setting": "[1]; 30° C.", "result": "larger SPR shifts"}, {"measurement": "Tfn-induced SPR shifts", "setting": "[1]; 37° C.", "result": "maximal shifts"}, {"measurement": "change in the average refraction index of cells Δn", "setting": "[1]", "result": "−4*10^−4"}, {"measurement": "time over which the SPR signal increased before levelling off", "setting": "[1]; holo-Tfn, 37° C.", "result": "2 to 3", "unit": "min"}, {"measurement": "SPR signal shift on removal (washout) with plain MEM/BSA", "setting": "[1]", "result": "red-shift in the SPR signal"}, {"measurement": "SPR shift upon introduction into the solution", "setting": "Melanoma 1106 cell", "result": "blue-shifted"}, {"measurement": "cell fluorescence intensity over time", "setting": "Melanoma cells; holo-Ft tagged with Rhodamine Red, Melanoma 1106 cell", "result": "fluorescence intensity increases and then achieves saturation"}]}
{"compound": "methyl-β-cyclodextrin [mβCD, reference compound]", "values": [{"measurement": "effect on holo-Tfn-induced SPR signal shift (cholesterol depletion / replenishment)", "setting": "[1]; mβCD 3 mM for 15 min at 37° C., rinsed, then holo-Tfn", "result": "diminished compared with untreated cells"}, {"measurement": "SPR shift after addition to growth medium", "setting": "HeLa cells", "result": "blue-shifted"}]}
